In PubChem BioAssay (NCI):
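A five-concentration, 48-hour dose response in 96-well plates underlies each endpoint, interpolated linearly between surrounding concentrations. TGI denotes the concentration required for complete inhibition of growth.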

Tests used:
Assay in all cases: DTP human tumour cell line panel, 48 h
786-0 renal = test system: 786-0 renal
BT-549 breast = test system: BT-549 breast
CCRF-CEM leukemia = test system: CCRF-CEM leukemia
HCC-2998 colon = test system: HCC-2998 colon
HCT-116 colon = test system: HCT-116 colon
HL-60(TB) leukemia = test system: HL-60(TB) leukemia
K-562 leukemia = test system: K-562 leukemia
M14 melanoma = test system: M14 melanoma
MCF7 breast = test system: MCF7 breast
MDA-MB-231 breast = test system: MDA-MB-231 breast
MDA-N = test system: MDA-N
OVCAR-3 ovarian = test system: OVCAR-3 ovarian
SF-268 CNS = test system: SF-268 CNS
SF-295 CNS = test system: SF-295 CNS
SK-MEL-28 melanoma = test system: SK-MEL-28 melanoma
SN12C renal = test system: SN12C renal
SR leukemia = test system: SR leukemia
T-47D breast = test system: T-47D breast
U251 CNS = test system: U251 CNS
SK-MEL-5 melanoma = test system: SK-MEL-5 melanoma

| Compound | TGI (786-0 renal) [µM] | TGI (BT-549 breast) [µM] | TGI (CCRF-CEM leukemia) [µM] | TGI (HCC-2998 colon) [µM] | TGI (HCT-116 colon) [µM] | TGI (HL-60(TB) leukemia) [µM] | TGI (K-562 leukemia) [µM] | TGI (M14 melanoma) [µM] | TGI (MCF7 breast) [µM] | TGI (MDA-MB-231 breast) [µM] | TGI (MDA-N) [µM] | TGI (OVCAR-3 ovarian) [µM] | TGI (SF-268 CNS) [µM] | TGI (SF-295 CNS) [µM] | TGI (SK-MEL-28 melanoma) [µM] | TGI (SN12C renal) [µM] | TGI (SR leukemia) [µM] | TGI (T-47D breast) [µM] | TGI (U251 CNS) [µM] | TGI (SK-MEL-5 melanoma) [µM] |
| --- | --- | --- | --- | --- | --- | --- | --- | --- | --- | --- | --- | --- | --- | --- | --- | --- | --- | --- | --- | --- |
| O=c1c2cc(-c3ccccc3)cnc2sn1-c1ccc(Oc2ccccc2)cc1 | 36.4 | 62.4 | 82.9 | > 100 | > 100 | > 100 | > 100 | > 100 | > 100 | 34.9 | > 100 | > 100 | > 100 | > 100 | > 100 | 89.8 | > 100 | > 100 | 78.1 | – |
| CCCC(=O)NC(C(=O)OCC)(N1CCOCC1)C(F)(F)F (stereo not drawn) | > 100 | > 100 | > 100 | > 100 | > 100 | > 100 | > 100 | > 100 | > 100 | > 100 | > 100 | > 100 | > 100 | > 100 | > 100 | > 100 | > 100 | > 100 | > 100 | > 100 |
| O=[N+]([O-])c1ccc(N/N=C(\c2ccccc2)c2ccccn2)nc1 | 23.4 | 87.1 | > 91.5 | > 59.6 | 29.8 | 31.7 | > 100 | 13.8 | 8.45 | 61.7 | > 100 | 23.3 | 35.5 | 25.7 | > 100 | > 68.9 | > 83.7 | 26.9 | > 81.8 | 26.5 |
| CCOC(=O)N1CCN(c2nc(C)n(-c3ccccc3)c(=S)c2C#N)CC1 | > 100 | > 100 | > 62.6 | > 100 | > 100 | > 66.7 | > 100 | > 100 | > 100 | > 84.3 | > 72.2 | > 100 | > 100 | > 100 | > 100 | > 100 | > 100 | > 100 | > 100 | > 100 |
| O=C1N=NC(=O)N1c1cc(C(F)(F)F)cc(C(F)(F)F)c1 | 17 | 12.9 | > 45 | 14.7 | 12.2 | > 100 | 32.9 | 24.3 | > 32.4 | 6.55 | 20.4 | > 23 | 17.3 | 9.49 | 44.3 | 13.8 | > 53.1 | > 30.2 | 12.4 | 7.62 |
| C[C@]12CC[C@H]3[C@@H](CCC4=CC(=O)CC[C@@]43C)[C@@H]1CC[C@@H]2C(=O)Nc1ccc([N+](=O)[O-])c(C(F)(F)F)c1 | 31.2 | 35.6 | 71.3 | 26.4 | 32.2 | > 100 | 73.7 | – | 30.5 | 43.4 | > 10 | 60 | 36.5 | 31.7 | 37.4 | 41 | 87.4 | 37.8 | 31.5 | 32.5 |
| Clc1ccc(C2=C(c3ccccc3)C(c3ccc(Cl)cc3)N3C(=N[C@H]4CCCC[C@@H]43)N2)cc1 (stereo partly drawn) | 27.8 | 28.6 | 26 | 10.4 | 14.7 | 10.9 | 7.98 | 24.8 | 21.2 | 29.8 | 28 | 26.7 | 44.8 | 23.8 | 26.5 | – | 5.56 | 31.4 | 23.3 | 24.8 |
| CSc1ccc(-c2cc(-c3nc4ccccc4[nH]3)nc(N)c2C#N)cc1 | > 100 | 59.6 | 80.1 | 33.1 | 42.7 | 48.9 | 58.6 | 33.8 | 54.6 | 36.1 | 66.1 | 43.1 | 61.6 | 53 | 53.2 | > 100 | 65.8 | 54.7 | – | 29 |
| COc1ccc2nc3cc([N+](=O)[O-])ccc3c(Nc3ccc(S(=O)(=O)N=C(N)N)cc3)c2c1 | > 100 | > 100 | 36.5 | 39.3 | 80.5 | 31.3 | 63.1 | > 100 | 96.4 | > 100 | > 100 | 72.6 | > 100 | > 100 | > 100 | > 100 | 4.68 | 88.7 | > 100 | 36.4 |
| CNCCCNC1(c2cc3ccccc3s2)CCCCC1 | 9.87 | 29.8 | 4.51 | 2.61 | 14.9 | 18.9 | 4.11 | 8.06 | 15.5 | 12.6 | 5.85 | 25.4 | 25.3 | 27.5 | 3.91 | 18.4 | 3.44 | 11.9 | 16.4 | 5.68 |
| Cn1c(=O)cc(N=Nc2ccc(Cl)c(Cl)c2)[nH]c1=O | 31.9 | 96.2 | 68.8 | > 100 | 59.6 | 50.7 | 55.9 | 47.7 | 59.8 | 45.3 | 37.4 | 33.2 | 51.1 | > 100 | 57.5 | > 100 | 54 | > 100 | 56.3 | > 100 |
| COc1ccc2oc(=O)c(-c3nc4ccccc4o3)cc2c1 | > 100 | > 100 | > 100 | > 100 | > 100 | > 100 | > 100 | > 100 | > 100 | > 100 | > 100 | > 100 | > 100 | > 100 | > 100 | > 100 | 49.7 | > 100 | > 100 | > 100 |
| CC1=CC(=O)[C@@H](O)[C@]2(C)[C@H]3[C@@]4(O)OC[C@@]35[C@@H](C[C@@H]12)OC(=O)C(OC(=O)CC1=CCCC1)[C@H]5[C@@H](C)[C@H]4O (stereo partly drawn) | 0.311 | 0.198 | 0.136 | 0.232 | 1.42 | 0.237 | > 100 | 0.103 | 0.656 | 0.372 | 0.163 | – | 0.132 | 0.448 | 1.25 | 0.435 | > 100 | > 23.2 | – | 0.0713 |
| CCOC(=O)c1[nH]cc(C)c1-c1c[nH]c2ccccc12 | > 100 | 93.8 | > 78.1 | > 100 | > 53.2 | > 100 | > 80.4 | > 100 | > 60.8 | > 58.9 | > 83.8 | > 76.8 | > 100 | > 93 | > 100 | > 100 | > 39.4 | > 100 | > 100 | 34.5 |
| Cc1ccc2c(c1)C(C1Cc3cccc(C)c3C1=O)OC2=O (stereo not drawn) | > 100 | > 100 | > 100 | > 100 | > 100 | > 100 | > 100 | > 100 | > 100 | > 100 | > 100 | > 100 | > 100 | > 100 | > 100 | > 100 | > 100 | > 100 | > 100 | > 100 |
| COc1cc(C2S/C(=C/c3ccccc3)C(=O)N2c2cc(Cl)c(Cl)cc2Cl)cc(OC)c1OC (stereo not drawn) | > 100 | > 74.4 | > 88.9 | > 100 | > 75 | > 77.2 | > 78.3 | > 100 | > 100 | > 100 | > 100 | > 100 | > 100 | > 100 | > 100 | > 100 | > 69.4 | > 100 | > 100 | > 100 |
| Cc1coc2c1C(=O)C(=O)c1c-2ccc2c1CCCC2(C)C | 8.62 | 9.28 | > 100 | 21.7 | 4.27 | – | 11.5 | 2.46 | 5.89 | > 100 | 2.8 | 1.47 | > 100 | 8.49 | 7.52 | > 30.1 | 7.03 | > 100 | > 100 | 1.19 |
| C/C(=N\Nc1nc2ccccc2s1)c1cnccn1 | > 100 | > 100 | > 100 | 31.9 | > 36.8 | – | > 34.1 | 12.3 | 20.2 | > 88.1 | > 100 | 17.4 | > 22.7 | > 23.5 | > 100 | > 80.8 | > 100 | > 100 | > 100 | 16 |
| C=C(C)[C@@H]1CCC2=C[C@H](OC2=O)[C@@]2(C)C[C@@H]2C(=O)/C=C(/C)C(=O)[C@H]1OC(C)=O | 30.3 | 27.4 | > 25.2 | 43 | 20.3 | > 100 | > 32.2 | > 100 | > 37.6 | > 100 | > 35.8 | > 50.8 | > 72.6 | > 100 | 52.9 | > 56.9 | > 37.8 | 26.1 | > 68 | 29.7 |
| CC(=O)OC[C@@]1(C)[C@@H]2[C@@H]3[C@@]4(CO[C@]3(C)C(=O)[C@@]3(O)C[C@H](C)[C@H](OC(C)=O)[C@@H]3[C@H]4OC(C)=O)[C@H](OC(=O)c3ccccc3)C[C@@H]21 | > 100 | > 100 | > 100 | > 100 | > 100 | > 100 | > 100 | > 100 | > 100 | > 100 | > 100 | > 100 | > 100 | > 100 | > 100 | > 100 | > 100 | > 100 | > 100 | > 100 |
| O=P(c1ccccc1)(c1ccccc1)c1ccc2c(c1)OCCOCCOCCOCCO2 | > 100 | > 100 | > 100 | > 100 | > 100 | > 100 | > 100 | > 100 | > 100 | > 100 | > 100 | – | > 100 | > 100 | > 100 | > 100 | > 100 | > 100 | – | > 100 |
| CC1OC(OC2C(CO)OC(O[C@H]3CC[C@@]4(C)C(=CC[C@H]5[C@@H]6C[C@@H]7O[C@](O)(CC[C@H](C)COC8OC(CO)C(O)C(O)C8O)[C@@H](C)[C@@H]7[C@@]6(C)CC[C@@H]54)C3)C(OC3OC(C)C(O)C(O)C3O)C2O)C(O)C(O)C1O (stereo partly drawn) | 5.72 | 18 | 4.47 | > 37.9 | > 32.1 | > 100 | > 33.4 | – | > 65.5 | 30.8 | 11.3 | > 29.3 | 11.5 | 23.1 | 12 | > 26 | > 100 | 17 | > 33 | > 32.8 |
| CCC1c2[nH]c3ccccc3c2C[C@H]2C(=O)N3CCC[C@H]3C(=O)N12 (stereo partly drawn) | > 100 | > 100 | – | > 100 | > 100 | > 100 | > 100 | > 100 | > 100 | > 100 | > 100 | > 100 | > 100 | > 100 | > 100 | > 100 | > 100 | > 100 | > 100 | > 100 |
